# Laboratory results reported in paper PMC11801377, “A uniquely efficacious type of CFTR corrector with complementary mode of action” (Science Advances, 2024).
# What was measured:
# CFTR = system: CFTR; parameters: method as in earlier work; conditions: ref [27] (GLPG-2737); ref [21], [26], [27] (ELX); cited from earlier work
# G551D-CFTR = biological target: T1, G551D-CFTR (Homo sapiens, UniProt P13569, G551D); assay: YFP quenching copotentiation assay in HEK-G551D-CFTR cells (acute treatment); type: cell-based; conditions: HEK293 cells, 10 min incubation
# T1 construct: expressed in transfected cells; host or cells: T-REx HEK293, also transduced with halide-sensitive YFP
# Description: (§1) The human CFTR expressing HEK cell pools with the mutations described below were generated by integrase-mediated homologous recombination of the CFTR sequence into the T-REx HEK293 background (Thermo Fisher Scientific). This expression system allows the tetracycline-inducible expression of genes of interest from one defined insertion site. Parental T-REx-HEK293 cells were cultivated in growth medium: Dulbecco’s modified Eagle’s medium + GlutaMAX-I (#31966, Life Technologies), 10% dialyzed FBS (Gibco, #26400), penicillin (100 U/ml), streptomycin (100 μg/ml), hygromycin B (0.1 mg/ml; Life Technologies), blasticidin (5 μg/ml; Invitrogen, #R210-01), and 0.1 mM nonessential amino acid solution (Invitrogen, #11140-035). Recombinant T-REx-HEK-CFTR cells were generated by lipofectamine transfection (Life Technologies) of plasmids containing mutated versions of CFTR (RefSeq NM_000492) and then cultivated in selection medium [growth medium containing Geneticin (1 mg/ml) (Invitrogen, #10131-027) instead of hygromycin]. The plasmid constructs were synthetized by GENEART (Thermo Fisher Scientific) and designed with the WT CFTR intron 5 to 6 (880 nucleotides) to prevent leaky expression issues during the cloning process in bacteria. […]
# WT-CFTR = biological target: T2, WT-CFTR (Homo sapiens, UniProt P13569); assay: YFP quenching assay in CFBE-WT-CFTR-YFP cells; type: cell-based
# T2 construct: host or cells: CFBE41o-
# F508del.K14A-CFTR = assay: Site-directed mutagenesis immunoblotting, HEK-TREx, F508del.K14A-CFTR; type: cell-based, human; conditions: 40 h, 2 μM
# Description: as §1
# F508del-CFTR = F508del-CFTR (Homo sapiens, UniProt P13569, DEL508-508); assay: CFTR immunoblotting in HEK-TREx cells expressing F508del-CFTR; type: cell-based; parameters: expressed in transfected cells; host or cells: T-REx HEK293; conditions: 48 hours, IDOR-3 2 μM, IDOR-4 0.4 μM
# Description: as §1
# R347P CFTR = biological target: T3, R347P CFTR (Homo sapiens, UniProt P13569, R347P); assay: CFTR correction (immunoblotting), HEK-TREx, R347P; type: cell-based; conditions: 48 hours, IDOR-3 2 μM, IDOR-4 0.4 μM, TEZ 2 μM + ELX 0.4 μM
# T3 construct: expressed in transfected cells; host or cells: T-REx HEK293
# Description: as §1
# I507del CFTR = biological target: T4, I507del CFTR (Homo sapiens, UniProt P13569, DEL507-507); assay: CFTR correction (immunoblotting), HEK-TREx, I507del; type: cell-based; conditions: 48 hours, IDOR-3 2 μM, IDOR-4 0.4 μM, TEZ 2 μM + ELX 0.4 μM
# T4 construct: expressed in transfected cells; host or cells: T-REx HEK293
# Description: as §1
# M1101K CFTR = biological target: T5, M1101K CFTR (Homo sapiens, UniProt P13569, M1101K); assay: CFTR correction (immunoblotting), HEK-TREx, M1101K; type: cell-based; conditions: 48 hours, IDOR-3 2 μM, IDOR-4 0.4 μM, TEZ 2 μM + ELX 0.4 μM
# T5 construct: expressed in transfected cells; host or cells: T-REx HEK293
# Description: as §1
# V520F CFTR = biological target: T6, V520F CFTR (Homo sapiens, UniProt P13569, V520F); assay: CFTR correction (immunoblotting), HEK-TREx, V520F; type: cell-based; conditions: 48 hours, IDOR-3 2 μM, IDOR-4 0.4 μM, TEZ 2 μM + ELX 0.4 μM
# T6 construct: expressed in transfected cells; host or cells: T-REx HEK293
# Description: as §1
# T1 sequence (P13569 whole entry G551D): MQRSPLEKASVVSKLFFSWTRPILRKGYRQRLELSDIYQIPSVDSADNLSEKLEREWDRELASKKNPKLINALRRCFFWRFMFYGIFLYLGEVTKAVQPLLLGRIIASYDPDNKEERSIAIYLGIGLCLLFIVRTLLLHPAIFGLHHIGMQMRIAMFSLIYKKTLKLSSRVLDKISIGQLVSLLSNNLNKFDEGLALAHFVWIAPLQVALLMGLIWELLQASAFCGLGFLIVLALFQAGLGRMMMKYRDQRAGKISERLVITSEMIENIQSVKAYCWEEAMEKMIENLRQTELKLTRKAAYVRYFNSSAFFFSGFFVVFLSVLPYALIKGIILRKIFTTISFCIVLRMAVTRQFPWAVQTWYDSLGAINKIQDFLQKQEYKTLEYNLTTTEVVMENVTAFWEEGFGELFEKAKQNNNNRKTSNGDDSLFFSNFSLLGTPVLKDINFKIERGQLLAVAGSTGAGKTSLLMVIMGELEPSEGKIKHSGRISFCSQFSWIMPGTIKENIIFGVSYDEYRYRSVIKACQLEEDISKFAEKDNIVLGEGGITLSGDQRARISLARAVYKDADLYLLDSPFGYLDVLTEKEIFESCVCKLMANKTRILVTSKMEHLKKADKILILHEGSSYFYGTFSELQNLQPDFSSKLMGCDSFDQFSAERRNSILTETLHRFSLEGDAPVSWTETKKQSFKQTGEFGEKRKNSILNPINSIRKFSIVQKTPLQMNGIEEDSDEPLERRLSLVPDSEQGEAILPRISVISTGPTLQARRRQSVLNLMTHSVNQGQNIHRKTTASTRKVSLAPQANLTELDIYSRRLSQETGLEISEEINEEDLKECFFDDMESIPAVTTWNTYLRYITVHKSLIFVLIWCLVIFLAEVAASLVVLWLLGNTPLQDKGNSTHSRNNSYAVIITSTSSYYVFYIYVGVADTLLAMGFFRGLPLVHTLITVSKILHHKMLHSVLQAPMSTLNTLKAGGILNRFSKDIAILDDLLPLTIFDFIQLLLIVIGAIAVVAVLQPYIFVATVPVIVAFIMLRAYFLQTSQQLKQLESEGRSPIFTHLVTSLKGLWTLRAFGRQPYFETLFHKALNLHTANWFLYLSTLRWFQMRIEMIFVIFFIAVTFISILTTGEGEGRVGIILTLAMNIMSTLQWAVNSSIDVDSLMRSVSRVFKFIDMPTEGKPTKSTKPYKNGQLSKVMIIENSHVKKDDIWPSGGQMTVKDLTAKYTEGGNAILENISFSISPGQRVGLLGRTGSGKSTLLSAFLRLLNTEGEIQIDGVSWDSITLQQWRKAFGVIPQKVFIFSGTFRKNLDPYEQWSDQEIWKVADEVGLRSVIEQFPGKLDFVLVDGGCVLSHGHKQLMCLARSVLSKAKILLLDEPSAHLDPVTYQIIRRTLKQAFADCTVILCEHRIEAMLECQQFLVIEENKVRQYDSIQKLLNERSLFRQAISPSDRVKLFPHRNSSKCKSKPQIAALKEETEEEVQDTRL
# T6 sequence (P13569 whole entry V520F): as the sequence (P13569 whole entry G551D) above, with V520F, D551G counted along it
# Sequence of F508del-CFTR (P13569 with tags, fused parts or gaps DEL508-508): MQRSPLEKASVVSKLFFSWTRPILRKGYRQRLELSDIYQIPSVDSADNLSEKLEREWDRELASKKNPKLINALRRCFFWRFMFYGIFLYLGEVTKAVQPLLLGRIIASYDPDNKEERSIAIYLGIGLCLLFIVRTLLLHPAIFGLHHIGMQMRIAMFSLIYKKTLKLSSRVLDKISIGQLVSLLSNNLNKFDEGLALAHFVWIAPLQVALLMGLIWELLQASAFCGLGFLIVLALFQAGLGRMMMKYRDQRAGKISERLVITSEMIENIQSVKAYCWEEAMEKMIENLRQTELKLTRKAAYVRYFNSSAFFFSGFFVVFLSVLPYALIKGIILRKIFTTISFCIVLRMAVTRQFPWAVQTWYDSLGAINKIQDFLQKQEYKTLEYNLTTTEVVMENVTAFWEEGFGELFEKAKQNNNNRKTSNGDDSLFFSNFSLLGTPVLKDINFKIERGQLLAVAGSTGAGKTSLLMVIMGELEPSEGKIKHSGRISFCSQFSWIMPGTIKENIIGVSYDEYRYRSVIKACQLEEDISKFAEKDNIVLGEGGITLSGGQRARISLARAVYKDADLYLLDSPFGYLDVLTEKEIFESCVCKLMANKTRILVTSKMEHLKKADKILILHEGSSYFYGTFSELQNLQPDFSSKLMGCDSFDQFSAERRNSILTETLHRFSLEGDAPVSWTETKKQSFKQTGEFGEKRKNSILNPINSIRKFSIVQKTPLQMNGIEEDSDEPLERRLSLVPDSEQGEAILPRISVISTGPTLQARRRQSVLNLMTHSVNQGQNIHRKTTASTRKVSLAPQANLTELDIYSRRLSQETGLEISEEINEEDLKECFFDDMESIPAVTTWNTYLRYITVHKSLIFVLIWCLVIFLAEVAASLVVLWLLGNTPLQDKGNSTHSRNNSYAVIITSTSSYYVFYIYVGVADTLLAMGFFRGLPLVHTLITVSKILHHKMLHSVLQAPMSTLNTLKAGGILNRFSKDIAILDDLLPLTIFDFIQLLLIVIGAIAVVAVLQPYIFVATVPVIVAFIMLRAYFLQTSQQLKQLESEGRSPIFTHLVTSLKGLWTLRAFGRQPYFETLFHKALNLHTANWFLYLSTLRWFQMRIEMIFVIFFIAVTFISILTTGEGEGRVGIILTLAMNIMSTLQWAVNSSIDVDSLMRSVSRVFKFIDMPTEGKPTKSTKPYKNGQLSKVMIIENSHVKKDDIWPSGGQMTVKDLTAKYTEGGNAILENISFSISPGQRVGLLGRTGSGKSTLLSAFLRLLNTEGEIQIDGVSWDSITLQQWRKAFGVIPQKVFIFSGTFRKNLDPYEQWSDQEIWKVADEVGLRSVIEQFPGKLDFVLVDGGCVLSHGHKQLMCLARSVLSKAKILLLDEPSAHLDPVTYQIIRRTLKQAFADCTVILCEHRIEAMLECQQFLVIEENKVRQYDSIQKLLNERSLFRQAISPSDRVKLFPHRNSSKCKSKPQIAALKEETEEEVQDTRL
# T2 sequence (P13569 whole entry): as the sequence (P13569 whole entry G551D) above, with D551G counted along it
# T4 sequence (P13569 with tags, fused parts or gaps DEL507-507): as the sequence (P13569 with tags, fused parts or gaps DEL508-508) above, with I507F counted along it
# T3 sequence (P13569 whole entry R347P): as the sequence (P13569 whole entry G551D) above, with R347P, D551G counted along it
# T5 sequence (P13569 whole entry M1101K): as the sequence (P13569 whole entry G551D) above, with D551G, M1101K counted along it
SMILES,acute effect on CFTR currents (CFTR),acute effect on IVA activity at G551D-CFTR (G551D-CFTR),increase in WT-CFTR function (WT-CFTR),weaker correction by macrocycles as compared to [LUM + BAM] (F508del.K14A-CFTR),increase in C-band expression (F508del-CFTR),correction of R347P (R347P CFTR),correction of I507del (I507del CFTR),correction of M1101K (M1101K CFTR),correction of V520F (V520F CFTR)
"Cc1nn(C)cc1S(=O)(=O)NC(=O)c1ccc(-n2ccc(OCC(C)(C)C(F)(F)F)n2)nc1N1C[C@@H](C)CC1(C)C [ELX, elexacaftor]",copotentiating effects,copotentiation of IVA activity,,,,,,,
COc1cc(CCNC(=O)C2CC(=O)N(C)C(CC(C)C)C(=O)N3CCCCC3C(=O)NC(Cc3ccccc3)COc3ccc4ncc(F)cc4c3C(=O)N2)on1 (stereo not shown) [IDOR-3],,copotentiation of IVA activity,~ 2 fold,two- to fourfold,9 fold,highly effective,highly effective,highly effective,highly effective
